The term IC50 denotes the point on the concentration scale where inhibition reaches its midpoint.

Chain of human VPS34 (Q8NEB9 whole entry): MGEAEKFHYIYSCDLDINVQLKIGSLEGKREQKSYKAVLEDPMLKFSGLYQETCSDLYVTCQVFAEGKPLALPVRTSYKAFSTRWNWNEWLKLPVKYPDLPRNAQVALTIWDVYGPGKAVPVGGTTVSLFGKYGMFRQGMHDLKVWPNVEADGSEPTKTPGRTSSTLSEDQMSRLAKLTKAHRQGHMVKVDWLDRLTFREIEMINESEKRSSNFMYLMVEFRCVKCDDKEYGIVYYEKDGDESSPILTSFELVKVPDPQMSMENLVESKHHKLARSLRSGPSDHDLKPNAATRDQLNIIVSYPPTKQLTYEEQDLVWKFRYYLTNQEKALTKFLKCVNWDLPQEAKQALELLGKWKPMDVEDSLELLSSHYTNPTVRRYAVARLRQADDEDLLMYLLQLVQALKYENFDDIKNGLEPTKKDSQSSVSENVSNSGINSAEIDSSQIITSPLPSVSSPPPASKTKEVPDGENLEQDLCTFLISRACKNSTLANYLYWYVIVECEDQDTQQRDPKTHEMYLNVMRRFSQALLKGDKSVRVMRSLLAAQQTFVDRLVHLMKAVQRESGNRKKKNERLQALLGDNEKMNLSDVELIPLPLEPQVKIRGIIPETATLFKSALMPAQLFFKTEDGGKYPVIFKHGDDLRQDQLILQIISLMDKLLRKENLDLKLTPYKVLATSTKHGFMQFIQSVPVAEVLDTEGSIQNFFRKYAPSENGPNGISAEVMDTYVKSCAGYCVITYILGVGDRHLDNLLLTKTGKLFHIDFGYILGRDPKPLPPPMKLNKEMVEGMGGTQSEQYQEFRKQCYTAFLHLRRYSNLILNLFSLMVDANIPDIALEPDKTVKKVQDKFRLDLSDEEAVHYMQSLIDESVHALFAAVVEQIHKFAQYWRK

The first assay has as its target human VPS34 (Homo sapiens (Human), UniProt Q8NEB9). In words: Human VPS34 enzyme assay (Adapta TR-FRET ADP detection). The format is biochemical. On the set-up: Percent Inhibition: dose or concentration left out as unconfirmed.
Details: not given
As to `CC(=O)Nc1cc(-c2cnc(C)c(NS(=O)(=O)c3cc(F)ccc3F)c2)ccn1` [Compound I-52], the “Percent Inhibition” value was greater than 99%. On the same count and under the same terms, with `CC(=O)Nc1cc(-c2cnc(N)c(S(=O)(=O)NCC(C)C)c2)ccn1` [Compound I-73, N-[6-amino-5-(isobutylsulfamoyl)-3,4′-bipyridin-2′-yl]acetamide] the figure was greater than 99%.

Staying with this assay, now noted: IC50 range class.
As to `COC(=O)Nc1cc(-c2cnc3[nH]ncc3c2)ccn1` [Compound I-38, Methyl [4-(1H-pyrazolo[3,4-b]pyridin-5-yl)pyridin-2-yl]carbamate], the IC50 lay within 10 to 50 nM. Compound `COc1ncc(-c2ccnc(NC(C)=O)c2)cc1S(=O)(=O)Nc1ccccc1` [Compound I-39, N-[6-methoxy-5-(phenylsulfamoyl)-3,4′-bipyridin-2′-yl]acetamide] displayed an IC50 of less than 10 nM. Still for that read-out and setting: with `CC(=O)Nc1cc(-c2cnc3[nH]cc(S(=O)(=O)N(C)C)c3c2)ccn1` [Compound I-40, N-{4-[3-(dimethylsulfamoyl)-1H-pyrrolo[2,3-b]pyridin-5-yl]pyridin-2-yl}acetamide] the figure was less than 10 nM. As to `COC(=O)Nc1cc(-c2cnc3ccn(CC4CC4)c3c2)ccn1` [Compound I-42, Methyl {4-[1-(cyclopropylmethyl)-1H-pyrrolo[3,2-b]pyridin-6-yl]pyridin-2-yl}carbamate], the 50% inhibitory concentration (IC50) lay in the range of 10 to 50 nM. Same read-out and setting: with `CC(=O)Nc1cc(-c2cnc(N)c(S(=O)(=O)Nc3ccccc3)c2)ccn1` [Compound I-43] the figure was less than 10 nM. On the same count and under the same terms, for `CCc1ccc(S(=O)(=O)Nc2cc(-c3ccnc(NC(C)=O)c3)cnc2C)cc1` [Compound I-44, N-(5-{[(4-ethylphenyl)sulfonyl]amino}-6-methyl-3,4′-bipyridin-2′-yl)acetamide] the value was less than 10 nM; for `CC(=O)Nc1cc(-c2cnc(C)c(NS(=O)(=O)c3cccnc3)c2)ccn1` [Compound I-45, N-{6-methyl-5-[(pyridin-3-ylsulfonyl)amino]-3,4′-bipyridin-2′-yl}acetamide], less than 10 nM. On the same count and under the same terms, with `CC(=O)Nc1cc(-c2cnc(C)c(N(C)S(=O)(=O)c3ccccc3)c2)ccn1` [Compound I-46, N-{6-methyl-5-[methyl(phenylsulfonyl)amino]-3,4′-bipyridin-2′-yl}acetamide] the figure was 10 to 50 nM. `CC(=O)Nc1cc(-c2cncc(S(=O)(=O)N3CCCC3)c2)ccn1` [Compound I-47, N-[5-(pyrrolidin-1-ylsulfonyl)-3,4′-bipyridin-2′-yl]acetamide] had an IC50 of 10 to 50 nM. Still for that read-out and setting: with `CC(=O)Nc1cc(-c2cncc(C(=O)N(C)C)c2)ccn1` [Compound I-48, 2′-acetamido-N,N-dimethyl-3,4′-bipyridine-5-carboxamide] the figure was greater than 100 nM; with `CC(=O)Nc1cc(-c2cnc(N)c(S(=O)(=O)NCC3CC3)c2C)ccn1` [Compound I-49, N-{6-amino-5-[(cyclopropylmethyl)sulfamoyl]-4-methyl-3,4′-bipyridin-2′-yl}acetamide], 50 to 100 nM. Same read-out and setting: with `CC(=O)Nc1cc(-c2cnc(N)c(S(=O)(=O)Cc3ccccc3C(F)(F)F)c2)ccn1` [Compound I-50, N-(6-amino-5-{[2-(trifluoromethyl)benzyl]sulfonyl}-3,4′-bipyridin-2′-yl)acetamide] the figure was 10 to 50 nM. In the case of `CC(=O)Nc1cc(-c2cncc(S(C)(=O)=O)c2)ccn1` [Compound I-51, N-[5-(methylsulfonyl)-3,4′-bipyridin-2′-yl]acetamide], the IC50 was in the range of 50 to 100 nM. On the same count and under the same terms, for `CC(=O)Nc1cc(-c2cnc(C)c(NS(=O)(=O)c3cc(F)ccc3F)c2)ccn1` [Compound I-52] the value was less than 10 nM; for `CC(=O)Nc1cc(-c2cnc(NCC3CC3)c(N)c2)ccn1` [Compound I-53, N-{5-amino-6-{(cyclopropylmethyl)amino]-3,4′-bipyridin-2′-yl}acetamide], greater than 100 nM.

In turn, `CC(=O)Nc1cc(-c2cnc3[nH]cc(CN4CCCC4)c3c2)ccn1` [Compound I-54, N-{4-[3-(pyrrolidin-1-ylmethyl)-1H-pyrrolo[2,3-b]pyridin-5-yl]pyridin-2-yl}acetamide] registered an IC50 greater than 100 nM.

The compound `COC(=O)Nc1cc(-c2cnc(N)c(C(=O)N(C)C)c2)ccn1` [Compound I-55, methyl [6-amino-5-(dimethylcarbamoyl)-3,4′-bipyridin-2′-yl]carbamate] gave a half-inhibitory concentration (IC50) of less than 10 nM.

In the case of `CC(=O)Nc1cc(-c2cnc(Cl)c(NS(=O)(=O)c3ccccc3)c2)c(C)cn1` [Compound I-56, N-{6-chloro-5′-methyl-5-[(phenylsulfonyl)amino]-3,4′-bipyridin-2′-yl]acetamide], the IC50 lay in the range of 10 to 50 nM.

As to `CNC(=O)c1cc(-c2ccnc(NC(C)=O)c2)cnc1N` [Compound I-57, 2′-acetamido-6-amino-N-methyl-3,4′-bipyridine-5-carboxamide], the IC50 lay in the range of 10 to 50 nM. Same read-out and setting: with `COc1cc(F)ccc1S(=O)(=O)Nc1cc(-c2ccnc(NC(C)=O)c2)cnc1C` [Compound I-58, N-(5-{[(4-fluoro-2-methoxyphenyl)sulfonyl]amino}-6-methyl-3,4′-bipyridin-2′-yl)acetamide] the figure was less than 10 nM. The same measure, in the same setting: with `CC(=O)Nc1cc(-c2cnc(C)c(NS(=O)(=O)c3ccc(F)c(F)c3)c2)ccn1` [Compound I-59, N-(5-{[(3,4-difluorophenyl)sulfonyl]amino}-6-methyl-3,4′-bipyridin-2′-yl)acetamide] the figure was less than 10 nM; with `CC(=O)Nc1cc(-c2cnc(N)c(C(=O)N3CCC(F)(F)C3)c2)ccn1` [Compound I-60, N-{6-amino-5-[(3,3-difluoropyrrolidin-1-yl)carbonyl]-3,4′-bipyridin-2′-yl}acetamide], 10 to 50 nM; with `CC(=O)Nc1cc(-c2cnc(N)c(S(N)(=O)=O)c2)ccn1` [Compound I-61, N-(6-amino-5-sulfamoyl-3,4′-bipyridin-2′-yl)acetamide], 10 to 50 nM. As for `CC(=O)Nc1cc(-c2cnc(C)c(NS(=O)(=O)c3ccccc3C(F)(F)F)c2)ccn1` [Compound I-62, N-[6-methyl-5-({[2-(trifluoromethyl)phenyl]sulfonyl}amino)-3,4′-bipyridin-2′-yl]acetamide], the IC50 is less than 10 nM. Same read-out and setting: for `CNc1ncc(-c2ccnc(NC(C)=O)c2)cc1S(=O)(=O)Nc1ccc(F)cc1F` [Compound I-63, N-{5-[(2,4-difluorophenyl)sulfamoyl]-6-(methylamino)-3,4′-bipyridin-2′-yl}acetamide] the value was less than 10 nM; for `CC(=O)Nc1cc(-c2cnc(NCC3CC3)c(NCC3CC3)c2)ccn1` [Compound I-65, N-{5,6-bis[(cyclopropylmethyl)amino]-3,4′-bipyridin-2′-yl}acetamide], greater than 100 nM; for `CC(=O)Nc1cc(-c2cnc3[nH]c(C)nc3c2)ccn1` [Compound I-66, N-[4-(2-methyl-3H-imidazo[4,5-b]pyridin-6-yl)pyridin-2-yl]acetamide], greater than 100 nM. Still for that read-out and setting: for `CC(=O)Nc1cc(-c2cnc3c(c2)CCN3)ccn1` [Compound I-67, N-[4-(2,3-dihydro-1H-pyrrolo[2,3-b]pyridin-5-yl)pyridin-2-yl]acetamide] the value was 50 to 100 nM.

In the case of `CC(=O)Nc1cc(-c2cnc3c(c2)NS(=O)(=O)N3CC2CC2)ccn1` [Compound I-68, N-{4-[3-(cyclopropylmethyl)-2,2-dioxido-1,3-dihydro[1,2,5]thiadiazolo[3,4-b]pyridin-6-yl)pyridin-2-yl}acetamide], the IC50 is greater than 100 nM. The same measure, in the same setting: with `CCS(=O)(=O)c1cc(-c2ccnc(NC(C)=O)c2)cnc1N` [Compound I-69, N-[6-amino-5-(ethylsulfonyl)-3,4′-bipyridin-2′-yl]acetamide] the figure was 10 to 50 nM; with `CC(=O)Nc1cc(-c2cnc(C)c(NS(=O)(=O)c3cccc(C(C)(C)C)c3)c2)ccn1` [Compound I-70], less than 10 nM. Still for that read-out and setting: with `CC(=O)Nc1cc(-c2cnc(N)c(C(=O)N3CCc4ccccc43)c2)ccn1` [Compound I-71, N-[6-amino-5-(2,3-dihydro-1H-indol-1-ylcarbonyl)-3,4′-bipyridin-2′-yl]acetamide] the figure was less than 10 nM; with `CC(=O)Nc1cc(-c2cnc(C)c(NS(=O)(=O)C3CCCCC3)c2)ccn1` [Compound I-72, N-{5-[(cyclohexylsulfonyl)amino]-6-methyl-3,4′-bipyridin-2′-yl]acetamide], less than 10 nM. As to `CC(=O)Nc1cc(-c2cnc(N)c(S(=O)(=O)NCC(C)C)c2)ccn1` [Compound I-73, N-[6-amino-5-(isobutylsulfamoyl)-3,4′-bipyridin-2′-yl]acetamide], the IC50 is less than 10 nM.

As for `COc1ccccc1S(=O)(=O)Nc1cc(-c2ccnc(NC(C)=O)c2)cnc1C` [Compound I-74, N-(5-{[(2-methoxyphenyl)sulfonyl]amino}-6-methyl-3,4′-bipyridin-2′-yl)acetamide], the IC50 is less than 10 nM. Still for that read-out and setting: for `CC(=O)Nc1cc(-c2cnc(C)c(C(=O)N(C)C)c2)ccn1` [Compound I-75, 2′-acetamido-N,N,6-trimethyl-3,4′-bipyridin-5-carboxamide] the value was 50 to 100 nM. The same measure, in the same setting: with `CC(=O)Nc1cc(-c2cnc(N)c(S(=O)(=O)N(C)Cc3ccccc3)c2)ccn1` [Compound I-76, N-{6-amino-5-[benzyl(methyl)sulfamoyl]-3,4′-bipyridin-2′-yl}acetamide] the figure was less than 10 nM; with `CC(=O)Nc1cc(-c2cnc(N)c(S(=O)(=O)N(C(C)C)C(C)C)c2)ccn1` [Compound I-77, N-[6-amino-5-(diisopropylsulfamoyl)-3,4′-bipyridin-2′-yl]acetamide], less than 10 nM.

With `CC(=O)Nc1cc(-c2cnc(C)c(NS(=O)(=O)c3cccc4ccccc34)c2)ccn1` [Compound I-78, N-[6-methyl-5-[(1-naphthylsulfonyl)amino]-3,4′-bipyridin-2′-yl}acetamide], the half-inhibitory concentration (IC50) is less than 10 nM.

As to `CC(=O)Nc1cc(-c2cnc(N)c(C(=O)N3CCN(C)CC3)c2)ccn1` [Compound I-79, N-[6-amino-5-[(4-methylpiperazin-1-yl)carbonyl]-3,4′-bipyridin-2′-yl}acetamide], the 50% inhibitory concentration (IC50) is 10 to 50 nM. The same measure, in the same setting: with `CC(=O)Nc1cc(-c2cnc(C)c(NS(=O)(=O)c3ccc(C)cc3)c2)ccn1` [Compound I-80, N-(6-methyl-5-{[(4-methylphenyl)sulfonyl]amino]-3,4′-bipyridin-2′-yl)acetamide] the figure was less than 10 nM; with `CC(=O)Nc1cc(-c2cnc(N)c(C(=O)N3CCC(C)CC3)c2)ccn1` [Compound I-81, N-{6-amino-5-[[4-methylpiperidin-1-yl)carbonyl]-3,4′-bipyridin-2′-yl}acetamide], less than 10 nM.

The values are drawn from US9751854B2 (Millennium Pharmaceuticals, Inc., priority 2014, dated 2017).
